Source: article PMC5812454 (Nanomedicine : nanotechnology, biology, and medicine, 2016)
Where a SMILES comes first, the peptide text is derived from it. Bridges are numbered along the chain shown (N, C = ends). {NH2} = amine

How the values were obtained:
[1] = tested on: HER2-positive breast cancer; conditions: cited from earlier work
[2] = target: T1, Recombinant human HER2 (Thr 23 – Thr 652) fused to IgG1 Fc Tag (Homo sapiens, UniProt P04626); test: SPR binding to immobilized HER2
[3] = ref [8]; cited from earlier work
[4] = target: T1, Recombinant human HER2 (Thr 23 – Thr 652) fused to IgG1 Fc Tag; test: SPR

CSCC[C@H](NC(=O)[C@H](Cc1ccc(O)cc1)NC(=O)[C@@H]1CSSC[C@H](NC(=O)[C@@H](N)Cc2ccc(O)cc2)C(=O)N[C@@H](CC(=O)O)C(=O)NCC(=O)N[C@@H](Cc2ccccc2)C(=O)N[C@@H](Cc2ccc(O)cc2)C(=O)N[C@@H](C)C(=O)N1)C(=O)N[C@@H](CC(=O)O)C(=O)N[C@H](C(N)=O)C(C)C [AHNP] (H-YCDGFYACYMDV-NH2; disulfide 2-8)
tumor growth inhibition (in words) ([1]; free AHNP, dose of 4 mg/kg, ref [12]): only a modest degree of inhibition
Kd [2]: 520 nM
koff ([2]; pH 9.5): 0.00042 s⁻¹
water solubility (in words) [3]: poorly water soluble

starPEG(PEG200-AHNP)2
Kd [4]: 4600 nM
koff [4]: 0.00054 s⁻¹
kon [4]: 118 M⁻¹ s⁻¹

AHNP, anti-HER2/neu peptide, 12 amino acid exocyclic mimetic peptide (analogue 3)
koff [4]: 0.00042 s⁻¹

AON: HER2-mRNA annealing Morpholino AON 5′-CATGGTGCTCACTGCGGCTCCGGC-NH2-3′ (all phosphorodiamidate morpholino (PMO), 3' {NH2})
tumor growth inhibition ([1]; AON in the absence of HER2 targeting, 2.5 mg/kg, ref [4]): 30–40%
